Test results reported in patent US10392398B2, “Inhibitors of Late SV40 Factor (LSF) as cancer chemotherapeutics” (TRUSTEES OF BOSTON UNIVERSITY, priority 2010, dated 2019).
Converted amounts (≈) assume the structure as drawn. Read-outs that look alike come from different tables or passages of the source.

Experiments:
[1] = Kinetic solubility, turbidity based assay; assay type: physicochemical; settings: PBS buffer, 37 °C, pH 7.2, aqueous buffer, kinetic from dmso stock, 1×PBS pH 7.2, 1% DMSO, read-out: kinetic solubility, concentration at which precipitates first showed
Experimental: Kinetic solubility was measured via a turbidity based assay method (Kerns, E. et al. Automation in Pharmaceutical Profiling. Journal of Laboratory Automation (2005) 10, 114-123). 198 μL of 1×PBS (137 mM NaCl, 2.7 mM KCl, 10 mM Na2HPO4, 2 mM KH2PO4, pH 7.2) was added to the wells of a 96-well plate. FQI-34 (either dried or air-exposed (9% water as determined by NMR)) was dissolved in DMSO for 30 mM final concentration immediately before testing. The 30 mM stock was further diluted in DMSO appropriately for the desired final concentration to be tested in the solubility assay. 2 μL of the DMSO solutions were added to the 96-well plate such that DMSO was kept to 1%. The plate was sealed and gently shaken, and allowed to incubate at 37° C. for 2 hours, after which the absorbance at 620 nm was taken. The concentration at which the absorbance was greater than or equal to 0.01 absorbance units was taken as the precipitation point.

QGY-7703 cells = assay: TUNEL apoptosis assay, QGY-7703; assay type: cell-based; settings: QGY-7703, 10 μM
Experimental: HCC cells were plated 24 h prior to incubation with FQI1. At the indicated time points, cells were analyzed using the FragEL™ DNA fragmentation kit (Calbiochem) according to the manufacturer's protocol. Flow cytometry was performed using a FACS caliber (Becton Dickinson) and analyzed with Cell Quest software.

cancer cell lines = assay: Inhibition of growth of cancer cell lines in vitro (FIGS. 9 and 10); assay type: cell-based; settings: 0.2-33 μM
Experimental: FIG. 9A-9K show the results of inhibition of growth of cancer cell lines in vitro by FQI1 (Formula (IV)). The effect of inhibition of cell growth (represented as a fraction of 1) of increasing concentrations of FQI1 between 0.2-33 μM is shown.
The effect of inhibition of cell growth (represented as a fraction of 1) of increasing concentrations of FQI2 between 0.2-33 μM is shown.

QGY-7703-derived tumors = assay: Subcutaneous xenograft model of HCC in mice; assay type: in vivo; settings: for growth of hepatocellular carcinoma in vivo: intraperitoneally once every 3 days, about 1.0-2.0 mg/kg
From the text: The inventors, in collaboration with other scientists performed in vivo experiments in a subcutaneous xenograft model, where mice with small QGY-7703-derived tumors were given multiple, spaced intraperitoneal injections of FQI1 (Formula IV) over a 2 week period, followed by an additional 2-weeks prior to analysis. […] However, expression of osteopontin, whose gene is activated directly by LSF^8, was abolished by FQI1 treatment, as was expression of Ki-67, indicative of the replicative capacity of the tumors (data not shown). […] In contrast to the dramatic effects on tumor growth, no general toxicity was evident in the inhibitor-treated animals, as assayed by lack of changes in body weight, feeding, grooming, posture, and general behavior, as well as hematoxylin and eosin staining of multiple tissues (data not shown), and levels of liver enzymes and protein in the blood (data not shown).

LSF [2] = target: T1, LSF (Homo sapiens, UniProt Q12800); assay: Electrophoretic mobility shift assay (EMSA) of LSF DNA-binding; assay type: biochemical; settings: in vitro translated LSF
T1 sequence (Q12800 1-502): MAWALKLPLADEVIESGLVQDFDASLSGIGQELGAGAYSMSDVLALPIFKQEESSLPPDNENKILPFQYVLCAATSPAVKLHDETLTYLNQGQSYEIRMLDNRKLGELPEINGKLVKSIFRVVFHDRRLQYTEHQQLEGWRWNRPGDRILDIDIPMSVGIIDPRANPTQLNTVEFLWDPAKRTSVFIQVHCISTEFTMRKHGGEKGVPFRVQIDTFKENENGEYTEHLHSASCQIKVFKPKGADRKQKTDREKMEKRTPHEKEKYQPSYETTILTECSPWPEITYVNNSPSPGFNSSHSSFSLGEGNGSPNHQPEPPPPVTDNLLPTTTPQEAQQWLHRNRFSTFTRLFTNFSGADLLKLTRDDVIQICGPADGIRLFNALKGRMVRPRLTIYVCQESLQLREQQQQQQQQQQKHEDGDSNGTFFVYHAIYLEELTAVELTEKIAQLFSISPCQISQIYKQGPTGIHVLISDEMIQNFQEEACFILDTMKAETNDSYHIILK
Experimental: LSF was translated in vitro as previously described^16 for use in EMSAs. Protein was preincubated with inhibitor or DMSO and then incubated with 0.5 μg poly d(I-C) for 15 min at 4° C. in 40 mM KCl, 15 mM HEPES pH 7.9, 1 mM EDTA, 0.5 mM DTT, 5% glycerol. Finally, radiolabelled double-stranded DNA ([…]—SEQ ID NO: 5- and its complement) were added for a 30-min incubation at 30° C. Results were visualized using a PhosphorImager and quantified using ImageQuant software.

[3] = system: primary mouse hepatocytes; assay: Primary mouse hepatocytes, growth and toxicity; assay type: cell-based
From the text: Averages with SEM of three experiments are shown. *P<0.05, by one-tailed t-test. […] The cells were imaged separately for TUNEL-positivity and DNA at the top. Below: Merged images; green for TUNEL (Terminal deoxynucleotidyl transferase dUTP nick end labeling) staining, blue for DAPI (4′,6-diamidino-2-phenylindole) staining. […] Binucleate cells are common for adult hepatocytes.

LSF [4] = target: T1, LSF; assay: Chromatin immunoprecipitation of myc-LSF-HA binding to the endogenous POLA1 promoter; assay type: cell-based; set-up: expressed in transfected cells; settings: human cell line
Experimental: USF-dependent reporter assays were performed with FQI1 only. Averages with standard deviation (SD) derive from 3-4 independent experiments. […] “−LSF”: translation extract with no programmed LSF. […] Myc-LSF-HA expression was induced with the small molecule inducer RSL1. In induced cells, FQI1 or vehicle was added for the final 12 h of myc-LSF-HA induction.

Structure (SMILES)	solubility kinetic at 2 h ([1]; air-exposed (9% water)) [µM]	solubility kinetic at 2 h ([1]; dry) [µM]	apoptosis in flow cytometric TUNEL assay (QGY-7703 cells) [%]	growth of a variety of cancers, in vitro cell assay (cancer cell lines)	suppression of growth of HCC tumor size (QGY-7703-derived tumors; about 1.0-2.0 mg/kg once every 3 days, versus untreated mice, data not shown)	general toxicity in inhibitor-treated animals (QGY-7703-derived tumors; body weight, feeding, grooming, posture, behavior, H&E of tissues)	expression of Ki-67 in endpoint tumors (QGY-7703-derived tumors; immunofluorescence)	expression of osteopontin in endpoint tumors (QGY-7703-derived tumors; immunofluorescence)	tumor growth in mouse xenograft (QGY-7703-derived tumors; in words)	growth of hepatocellular carcinoma in vivo (QGY-7703-derived tumors; in words, listed as formula (IV))	growth of hepatocellular carcinoma in vivo (QGY-7703-derived tumors; in words, listed as formula IV)	reduction of HCC tumor volume (QGY-7703-derived tumors; mouse model, data not shown)	decrease in endpoint tumor volumes (QGY-7703-derived tumors; multiple intraperitoneal injections over 2 weeks, analysis 2 weeks later, data not shown) [fold]	modulation of LSF DNA-binding in EMSA (LSF [2])	growth consequences or toxicity in primary non-dividing mouse hepatocytes [3]	binding of inducible HA-tagged LSF to the POLA1 promoter (ChIP) (LSF [4])
CCOc1cc(N(C)C)ccc1C1CC(=O)Nc2cc3c(cc21)OCO3 (stereo not shown) [FQI-34, 8-(4-(dimethylamino)-2-ethoxyphenyl)-7,8-dihydro-[1,3]dioxolo[4,5-g]quinolin-6(5H)-one]	100 (≈ 35.4 µg/mL)	150 (≈ 53.2 µg/mL)	–	–	–	–	–	–	–	–	–	–	–	–	–	–
CCOc1ccccc1C1CC(=O)Nc2cc3c(cc21)OCO3 (racemic) [FQI1, 8-(2-ethoxyphenyl)-7,8-dihydro-[1,3]dioxolo[4,5-g]quinolin-6(5H)-one]	–	–	90	inhibit the growth of a variety of cancers	65-80%	not evident	abolished	abolished	remarkable decrease in tumor growth	prevented or delayed the growth of hepatocellular carcinoma	effective at abrogating the growth of hepatocellular carcinoma in vivo	about 80%	~9	initial enhancement at low concentrations and inhibition at higher concentrations	No growth consequences or toxicity	efficiently blocked
